What all share (format): in vivo
What all share (conditions): evaluated after 13 days

In assay [1] the test system is Setaria faberi (SETFA). Description: Pre-emergence Test, Setaria faberi (SETFA).
Assay [2] relates to Echinochloa crus-galli (ECHCG). Description: Pre-emergence Test, Echinochloa crus-galli (ECHCG).
The test system of assay [3] is Zea mays (ZEAMX). Description: Pre-emergence Test, Zea mays (ZEAMX).
Assay [4] relates to Ipomoea hederacea (IPOHE). Description: Pre-emergence Test, Ipomoea hederacea (IPOHE).
In assay [5] the test system is Amaranthus palmeri (AMAPA). Description: Pre-emergence Test, Amaranthus palmeri (AMAPA).
Assay [6] has as its system Amaranthus retoflexus (AMARE). Description: Pre-emergence Test, Amaranthus retoflexus (AMARE).
In assay [7] the test system is Setaria faberi (SETFA). As to the kind of experiment: Post-emergence Test, Setaria faberi (SETFA). More on the design: key to percentage damage caused to the plant, SETFA (five-point scale): 5=81-100%, 4=61-80%, 3=41-60%, 2=21-40%, 1=0-20% damage. In outline:
(§1)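 Application was a spray of acetone/water (50:50) with 0.5% Tween 20 onto pots of test species sown in standard soil. Unless otherwise stated, the rate was 1000 g/ha. After 13 days under glasshouse conditions (24/16 °C, 65% humidity), injury was scored from 1 (0-20%) to 5 (81-100%).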

For assay [8], the system named is Echinochloa crus-galli (ECHCG). Description: Post-emergence Test, Echinochloa crus-galli (ECHCG). Set-up: key to percentage damage caused to the plant, ECHCG (five-point scale): 5=81-100%, 4=61-80%, 3=41-60%, 2=21-40%, 1=0-20% damage. In outline:
as §1

Assay [9] has as its system Zea mays (ZEAMX). As to the kind of experiment: Post-emergence Test, Zea mays (ZEAMX). Set-up: key to percentage damage caused to the plant, ZEAMX (five-point scale): 5=81-100%, 4=61-80%, 3=41-60%, 2=21-40%, 1=0-20% damage. In outline: as §1
Assay [10] deals with Ipomoea hederacea (IPOHE). Description: Post-emergence Test, Ipomoea hederacea (IPOHE). Set-up: key to percentage damage caused to the plant, IPOHE (five-point scale): 5=81-100%, 4=61-80%, 3=41-60%, 2=21-40%, 1=0-20% damage. In outline: as §1
The subject of assay [11] is Amaranthus palmeri (AMAPA). Description: Post-emergence Test, Amaranthus palmeri (AMAPA). More on the design: key: 5=81-100%, 4=61-80%, 3=41-60%, 2=21-40%, 1=0-20% damage. The procedure, abridged: as §1
Assay [12] deals with Amaranthus retoflexus (AMARE). Description: Post-emergence Test, Amaranthus retoflexus (AMARE). Set-up: key to percentage damage caused to the plant, AMARE (five-point scale): 5=81-100%, 4=61-80%, 3=41-60%, 2=21-40%, 1=0-20% damage. In outline: as §1

Consider `CCn1c(Cn2cnc(OC)n2)cc(=O)c(C(=O)O)c1-c1ccc(Cl)c(Cl)c1` [Compound 44, 2-(3,4-dichlorophenyl)-1-ethyl-6-[(3-methoxy-1,2,4-triazol-1-yl)methyl]-4-oxo-pyridine-3-carboxylic acid], for which the “Pre-emergence Test SETFA, percentage damage caused to the plant (five-point scale)” value in the assay on Setaria faberi (SETFA) [1] (1000 g/ha) was 1 (1=0-20%). Moreover, the “Pre-emergence Test ECHCG, percentage damage caused to the plant (five-point scale)” value in assay [2] (1000 g/ha) is listed as 2 (2=21-40%). Also, the “Pre-emergence Test ZEAMX, percentage damage caused to the plant (five-point scale)” value in the assay on Zea mays (ZEAMX) [3] (1000 g/ha) is recorded as 0. Besides, in assay [4] (1000 g/ha), the “Pre-emergence Test IPOHE, percentage damage caused to the plant (five-point scale)” value was 1 (1=0-20%). Besides, the “Pre-emergence Test AMAPA, percentage damage caused to the plant (five-point scale)” value in assay [5] (1000 g/ha) is given as 3 (3=41-60%). For the same molecule, the “Pre-emergence Test AMARE, percentage damage caused to the plant (five-point scale)” value in assay [6] (1000 g/ha) is reported as 2 (2=21-40%). Further, the “percentage damage caused to the plant, SETFA (five-point scale)” value in the assay with Setaria faberi (SETFA) [7] (1000 g/ha) is given as 1 (1=0-20%). Moreover, in [8] (1000 g/ha), the “percentage damage caused to the plant, ECHCG (five-point scale)” value is recorded as 1 (1=0-20%). Further, in the assay on Zea mays (ZEAMX) [9] (1000 g/ha), the “percentage damage caused to the plant, ZEAMX (five-point scale)” value was 1 (1=0-20%). The “percentage damage caused to the plant, IPOHE (five-point scale)” value in assay [10] (1000 g/ha) was 2 (2=21-40%). Moreover, the “percentage damage caused to the plant, AMAPA (five-point scale)” value in assay [11] (1000 g/ha) is 3 (3=41-60%). Further, the “percentage damage caused to the plant, AMARE (five-point scale)” value in assay [12] (1000 g/ha) came to 0.

On to `CCn1c(Cn2ccc(F)n2)cc(=O)c(C(=O)O)c1-c1ccc(Cl)c(Cl)c1` [Compound 36, 2-(3,4-dichlorophenyl)-1-ethyl-6-[(3-fluoropyrazol-1-yl)methyl]-4-oxo-pyridine-3-carboxylic acid], for which the “Pre-emergence Test SETFA, percentage damage caused to the plant (five-point scale)” value in the assay with Setaria faberi (SETFA) [1] (250 g/Ha (*)) was 4 (4=61-80%). Besides, the “Pre-emergence Test ECHCG, percentage damage caused to the plant (five-point scale)” value in assay [2] (250 g/Ha (*)) is reported as 3 (3=41-60%). The “Pre-emergence Test ZEAMX, percentage damage caused to the plant (five-point scale)” value in the assay with Zea mays (ZEAMX) [3] (250 g/Ha (*)) worked out at 0. The “Pre-emergence Test IPOHE, percentage damage caused to the plant (five-point scale)” value in [4] (250 g/Ha (*)) was 0. Also, in assay [5] (250 g/Ha (*)), the “Pre-emergence Test AMAPA, percentage damage caused to the plant (five-point scale)” value is recorded as 2 (2=21-40%). For the same molecule, in assay [6] (250 g/Ha (*)), the “Pre-emergence Test AMARE, percentage damage caused to the plant (five-point scale)” value was 1 (1=0-20%). In addition, in the assay on Setaria faberi (SETFA) [7] (250 g/Ha), the “percentage damage caused to the plant, SETFA (five-point scale)” value is recorded as 4 (4=61-80%). Further, in assay [8] (250 g/Ha), the “percentage damage caused to the plant, ECHCG (five-point scale)” value was 3 (3=41-60%). In addition, in the assay with Zea mays (ZEAMX) [9] (250 g/Ha), the “percentage damage caused to the plant, ZEAMX (five-point scale)” value is 2 (2=21-40%). In assay [10] (250 g/Ha), the “percentage damage caused to the plant, IPOHE (five-point scale)” value is recorded as 4 (4=61-80%). Further, the “percentage damage caused to the plant, AMAPA (five-point scale)” value in [11] (250 g/Ha) was 1 (1=0-20%). For the same molecule, the “percentage damage caused to the plant, AMARE (five-point scale)” value in assay [12] (250 g/Ha) is given as 2 (2=21-40%).

Source of the values: patent US20250098679A1, “HERBICIDAL PYRIDONE DERIVATIVES” (SYNGENTA CROP PROTECTION AG, priority 2021, published 2025).
